Test results published in ChEMBL document CHEMBL6127079, “Design and synthesis of spiro[pyrrolidine-3,3'-quinoline]-2,2'-dione derivatives as novel antifungal agents targeting chitin synthase” (Eur J Med Chem, 2024).
In brackets after ≈: the same amount, converted by molar mass.

How the values were obtained:
[1] = test system: Cryptococcus neoformans; experiment: Antifungal activity against fluconazole-resistant Cryptococcus neoformans ATCC 32719 assessed as inhibition of fungal growth incubated for 24 to 72 hrs; format: functional; settings: time 24-72 hrs
[2] = test system: Aspergillus flavus; experiment: Synergistic antifungal activity against Aspergillus flavus ATCC 16870 assessed as fractional inhibitory concentration index in presence of fluconazole incubated for 24 hrs by half broth dilution based checkerboard method; format: functional
[3] = test system: Aspergillus fumigatus; experiment: Antifungal activity against Aspergillus fumigatus GIMCC 3.19 incubated for 24 hrs by half broth dilution based checkerboard method; format: functional
[4] = test system: Aspergillus fumigatus; experiment: Antifungal activity against Aspergillus fumigatus GIMCC 3.19 assessed as Polyoxin B MIC incubated for 24 hrs in presence of fluconazole by half broth dilution based checkerboard method; format: functional
[5] = test system: Candida albicans; experiment: Antifungal activity against Candida albicans ATCC 76615 assessed as Polyoxin B MIC incubated for 24 hrs in presence of fluconazole by half broth dilution based checkerboard method; format: functional
[6] = test system: Candida albicans; experiment: Antifungal activity against Candida albicans ATCC 76615 assessed as fluconazole MIC incubated for 24 hrs in presence of fluconazole by half broth dilution based checkerboard method; format: functional
[7] = test system: Cryptococcus neoformans; experiment: Synergistic antifungal activity against Cryptococcus neoformans ATCC 32719 assessed as fractional inhibitory concentration index in presence of Polyoxin B incubated for 24 hrs by half broth dilution based checkerboard method; format: functional
[8] = test system: Aspergillus fumigatus; experiment: Synergistic antifungal activity against Aspergillus fumigatus GIMCC 3.19 assessed as fractional inhibitory concentration index in presence of Polyoxin B incubated for 24 hrs by half broth dilution based checkerboard method; format: functional
[9] = Inhibition of chitin synthase extracted from Candida tropicalis ATCC 750 using UDP-GlcNAc as substrate assessed as inhibition rate by TMB based microplate analyzer relative to control
[10] = test system: Aspergillus flavus; experiment: Antifungal activity against Aspergillus flavus ATCC 16870 incubated for 24 hrs by half broth dilution based checkerboard method; format: functional
[11] = test system: Cryptococcus neoformans; experiment: Antifungal activity against Cryptococcus neoformans ATCC 32719 assessed as Polyoxin B MIC incubated for 24 hrs in presence of fluconazole by half broth dilution based checkerboard method; format: functional
[12] = test system: Candida tropicalis; experiment: Inhibition of chitin synthase extracted from Candida tropicalis ATCC 750 using UDP-GlcNAc as substrate assessed as inhibition rate at 300 ug/ml by TMB based microplate analyzer relative to control; settings: dose 300.0 µg/ml
[13] = test system: Aspergillus flavus; experiment: Antifungal activity against drug-resistant Aspergillus flavus ATCC 16870 assessed as inhibition of cell wall synthesis in presence of sorbitol incubated for 24 hrs; format: functional
[14] = test system: Cryptococcus neoformans; experiment: Antifungal activity against drug-resistant Cryptococcus neoformans ATCC 32719 assessed as inhibition of cell wall synthesis in presence of sorbitol incubated for 24 hrs; format: functional
[15] = test system: Candida albicans; experiment: Antifungal activity against fluconazole-resistant Candida albicans ATCC 76615 assessed as inhibition of fungal growth incubated for 24 to 72 hrs; format: functional; settings: time 24-72 hrs
[16] = test system: Cryptococcus neoformans; experiment: Synergistic antifungal activity against Cryptococcus neoformans ATCC 32719 assessed as fractional inhibitory concentration index in presence of fluconazole incubated for 24 hrs by half broth dilution based checkerboard method; format: functional
[17] = test system: Aspergillus flavus; experiment: Antifungal activity against Aspergillus flavus ATCC 16870 assessed as inhibition of growth incubated for 24 hrs by two-fold serial dilution method; format: functional
[18] = test system: Aspergillus flavus; experiment: Antifungal activity against fluconazole-resistant Aspergillus flavus ATCC 16870 assessed as inhibition of fungal growth incubated for 24 to 72 hrs; format: functional; settings: time 24-72 hrs
[19] = test system: Aspergillus flavus; experiment: Antifungal activity against Aspergillus flavus ATCC 16870 assessed as Polyoxin B MIC incubated for 24 hrs in presence of fluconazole by half broth dilution based checkerboard method; format: functional
[20] = test system: Aspergillus flavus; experiment: Synergistic antifungal activity against Aspergillus flavus ATCC 16870 assessed as fractional inhibitory concentration index in presence of Polyoxin B incubated for 24 hrs by half broth dilution based checkerboard method; format: functional
[21] = test system: Aspergillus fumigatus; experiment: Synergistic antifungal activity against Aspergillus fumigatus GIMCC 3.19 assessed as fractional inhibitory concentration index in presence of fluconazole incubated for 24 hrs by half broth dilution based checkerboard method; format: functional
[22] = test system: Aspergillus fumigatus; experiment: Antifungal activity against Aspergillus fumigatus GIMCC 3.19 assessed as fluconazole MIC incubated for 24 hrs in presence of fluconazole by half broth dilution based checkerboard method; format: functional
[23] = test system: Candida albicans; experiment: Antifungal activity against Candida albicans ATCC 76615 incubated for 24 hrs by half broth dilution based checkerboard method; format: functional
[24] = test system: Candida albicans; experiment: Antifungal activity against drug-resistant Candida albicans ATCC 76615 assessed as inhibition of cell wall synthesis in presence of sorbitol incubated for 24 hrs; format: functional
[25] = test system: Aspergillus fumigatus; experiment: Antifungal activity against Aspergillus fumigatus GIMCC 3.19 assessed as inhibition of growth incubated for 24 hrs by two-fold serial dilution method; format: functional
[26] = test system: Cryptococcus neoformans; experiment: Antifungal activity against Cryptococcus neoformans ATCC 32719 incubated for 24 hrs by half broth dilution based checkerboard method; format: functional
[27] = test system: Aspergillus fumigatus; experiment: Antifungal activity against drug-resistant Aspergillus fumigatus GIMCC 3.19 assessed as inhibition of cell wall synthesis in presence of sorbitol incubated for 24 hrs; format: functional
[28] = test system: Cryptococcus neoformans; experiment: Antifungal activity against Cryptococcus neoformans ATCC 32719 assessed as inhibition of growth incubated for 24 hrs by two-fold serial dilution method; format: functional
[29] = test system: Candida albicans; experiment: Antifungal activity against Candida albicans ATCC 76615 assessed as inhibition of growth incubated for 24 hrs by two-fold serial dilution method; format: functional
[30] = test system: Candida albicans; experiment: Synergistic antifungal activity against Candida albicans ATCC 76615 assessed as fractional inhibitory concentration index in presence of Polyoxin B incubated for 24 hrs by half broth dilution based checkerboard method; format: functional
[31] = test system: Aspergillus fumigatus; experiment: Antifungal activity against fluconazole-resistant Aspergillus fumigatus GIMCC 3.19 assessed as inhibition of fungal growth incubated for 24 to 72 hrs; format: functional; settings: time 24-72 hrs
[32] = test system: Candida albicans; experiment: Antifungal activity against micafungin-resistant Candida albicans ATCC 76615 assessed as inhibition of fungal growth incubated for 24 to 72 hrs; format: functional; settings: time 24-72 hrs
[33] = test system: Cryptococcus neoformans; experiment: Antifungal activity against Cryptococcus neoformans ATCC 32719 assessed as fluconazole MIC incubated for 24 hrs in presence of fluconazole by half broth dilution based checkerboard method; format: functional
[34] = test system: Aspergillus flavus; experiment: Antifungal activity against Aspergillus flavus ATCC 16870 assessed as fluconazole MIC incubated for 24 hrs in presence of fluconazole by half broth dilution based checkerboard method; format: functional
[35] = test system: Candida albicans; experiment: Synergistic antifungal activity against Candida albicans ATCC 76615 assessed as fractional inhibitory concentration index in presence of fluconazole incubated for 24 hrs by half broth dilution based checkerboard method; format: functional

Cc1ccc(NC(=O)/C=C/C(=O)Nc2ccc3c(c2)NC(=O)C2(CCNC2=O)C3)cc1 (racemic)
MIC [1]: 64 µg/mL (≈ 153 µM)
fractional inhibitory concentration index (FICI) [2]: 2
MIC [3]: 8 µg/mL
MIC [4]: 16 µg/mL
MIC [5]: 8 µg/mL
MIC [6]: 4 µg/mL
fractional inhibitory concentration index (FICI) [7]: 1.5
fractional inhibitory concentration index (FICI) [8]: 1.5
IC50 [9]: 201 µM
MIC [10]: 4 µg/mL
MIC [11]: 16 µg/mL
inhibition [12]: 71.4%
MIC [13]: 64 µg/mL
MIC [14]: 256 µg/mL
MIC [15]: 64 µg/mL (≈ 153 µM)
fractional inhibitory concentration index (FICI) [16]: 1.5
MIC [17]: 8 µg/mL (≈ 19.1 µM)
MIC [18]: 32 µg/mL (≈ 76.5 µM)
MIC [19]: 4 µg/mL
fractional inhibitory concentration index (FICI) [20]: 2
fractional inhibitory concentration index (FICI) [21]: 1.5
MIC [22]: 4 µg/mL
MIC [23]: 8 µg/mL
MIC [24]: 128 µg/mL
MIC [25]: 16 µg/mL (≈ 38.2 µM)
MIC [26]: 16 µg/mL
MIC [27]: 128 µg/mL
MIC [28]: 32 µg/mL (≈ 76.5 µM)
MIC [29]: 16 µg/mL (≈ 38.2 µM)
fractional inhibitory concentration index (FICI) [30]: 1
MIC [31]: 32 µg/mL (≈ 76.5 µM)
MIC [32]: 64 µg/mL (≈ 153 µM)
MIC [33]: 8 µg/mL
MIC [34]: 4 µg/mL
fractional inhibitory concentration index (FICI) [35]: 1

O=C(CN1CCC(C(=O)Nc2ccc(Br)cc2)CC1)Nc1ccc2c(c1)NC(=O)C1(CCNC1=O)C2 (racemic)
MIC [1]: 32 µg/mL (≈ 57.7 µM)
fractional inhibitory concentration index (FICI) [2]: 1.25
MIC [3]: 16 µg/mL
MIC [4]: 16 µg/mL
MIC [5]: 16 µg/mL
MIC [6]: 4 µg/mL
fractional inhibitory concentration index (FICI) [7]: 1.5
fractional inhibitory concentration index (FICI) [8]: 1
IC50 [9]: 116 µM
MIC [10]: 32 µg/mL
MIC [11]: 8 µg/mL
inhibition [12]: 63%
MIC [13]: 256 µg/mL
MIC [14]: 128 µg/mL
MIC [15]: 32 µg/mL (≈ 57.7 µM)
fractional inhibitory concentration index (FICI) [16]: 0.75
MIC [17]: 32 µg/mL (≈ 57.7 µM)
MIC [18]: 64 µg/mL (≈ 115 µM)
MIC [19]: 32 µg/mL
fractional inhibitory concentration index (FICI) [20]: 0.5
fractional inhibitory concentration index (FICI) [21]: 1
MIC [22]: 2 µg/mL
MIC [23]: 16 µg/mL
MIC [24]: 256 µg/mL
MIC [25]: 16 µg/mL (≈ 28.9 µM)
MIC [26]: 8 µg/mL
MIC [27]: 512 µg/mL
MIC [28]: 8 µg/mL (≈ 14.4 µM)
MIC [29]: 16 µg/mL (≈ 28.9 µM)
fractional inhibitory concentration index (FICI) [30]: 1
MIC [31]: 64 µg/mL (≈ 115 µM)
MIC [32]: 32 µg/mL (≈ 57.7 µM)
MIC [33]: 2 µg/mL
MIC [34]: 4 µg/mL
fractional inhibitory concentration index (FICI) [35]: 1

O=C(CN1CCC(C(=O)Nc2cccc(Br)c2)CC1)Nc1ccc2c(c1)NC(=O)C1(CCNC1=O)C2 (racemic)
MIC [1]: 32 µg/mL (≈ 57.7 µM)
fractional inhibitory concentration index (FICI) [2]: 0.625
MIC [3]: 32 µg/mL
MIC [4]: 32 µg/mL
MIC [5]: 16 µg/mL
MIC [6]: 1 µg/mL
fractional inhibitory concentration index (FICI) [7]: 1
fractional inhibitory concentration index (FICI) [8]: 0.75
IC50 [9]: 101 µM
MIC [10]: 32 µg/mL
MIC [11]: 8 µg/mL
inhibition [12]: 80.6%
MIC [13]: 256 µg/mL
MIC [14]: 256 µg/mL
MIC [15]: 32 µg/mL (≈ 57.7 µM)
fractional inhibitory concentration index (FICI) [16]: 1.5
MIC [17]: 32 µg/mL (≈ 57.7 µM)
MIC [18]: 32 µg/mL (≈ 57.7 µM)
MIC [19]: 32 µg/mL
fractional inhibitory concentration index (FICI) [20]: 1.25
fractional inhibitory concentration index (FICI) [21]: 0.75
MIC [22]: 1 µg/mL
MIC [23]: 16 µg/mL
MIC [24]: 128 µg/mL
MIC [25]: 32 µg/mL (≈ 57.7 µM)
MIC [26]: 8 µg/mL
MIC [27]: 256 µg/mL
MIC [28]: 8 µg/mL (≈ 14.4 µM)
MIC [29]: 16 µg/mL (≈ 28.9 µM)
fractional inhibitory concentration index (FICI) [30]: 1.5
MIC [31]: 64 µg/mL (≈ 115 µM)
MIC [32]: 64 µg/mL (≈ 115 µM)
MIC [33]: 0.75 µg/mL
MIC [34]: 1.25 µg/mL
fractional inhibitory concentration index (FICI) [35]: 1.25

O=C(/C=C/C(=O)Nc1cccc2ccccc12)Nc1ccc2c(c1)NC(=O)C1(CCNC1=O)C2 (racemic)
MIC [1]: 32 µg/mL (≈ 70.4 µM)
fractional inhibitory concentration index (FICI) [2]: 0.75
MIC [3]: 2 µg/mL
MIC [4]: 2 µg/mL
MIC [5]: 8 µg/mL
MIC [6]: 8 µg/mL
fractional inhibitory concentration index (FICI) [7]: 0.5
fractional inhibitory concentration index (FICI) [8]: 1
IC50 [9]: 131 µM
MIC [10]: 2 µg/mL
MIC [11]: 2 µg/mL
inhibition [12]: 79.5%
MIC [13]: 64 µg/mL
MIC [14]: 128 µg/mL
MIC [15]: 32 µg/mL (≈ 70.4 µM)
fractional inhibitory concentration index (FICI) [16]: 0.5
MIC [17]: 8 µg/mL (≈ 17.6 µM)
MIC [18]: 32 µg/mL (≈ 70.4 µM)
MIC [19]: 2 µg/mL
fractional inhibitory concentration index (FICI) [20]: 0.75
fractional inhibitory concentration index (FICI) [21]: 1
MIC [22]: 2 µg/mL
MIC [23]: 4 µg/mL
MIC [24]: 256 µg/mL
MIC [25]: 8 µg/mL (≈ 17.6 µM)
MIC [26]: 2 µg/mL
MIC [27]: 128 µg/mL
MIC [28]: 8 µg/mL (≈ 17.6 µM)
MIC [29]: 16 µg/mL (≈ 35.2 µM)
fractional inhibitory concentration index (FICI) [30]: 1.25
MIC [31]: 64 µg/mL (≈ 141 µM)
MIC [32]: 32 µg/mL (≈ 70.4 µM)
MIC [33]: 2 µg/mL
MIC [34]: 2 µg/mL
fractional inhibitory concentration index (FICI) [35]: 1.125
